Measurements published in patent US6531512B1, “Method of treating cancer in patients having a deficiency in p53 tumor suppressor gene” (Health Research Inc., priority 1998, dated 2003).
“Also recorded” adds a separate entry of the source.

Legend:
[1] = tested on: SK-MEL-28 human melanoma cells; test: Polyamine pools and analog accumulation in SK-MEL-28 cells; type: cell-based
Description: (§1) MALME-3M human melanoma cells were cultured as described in Example 1 and treated with 10 μM DENSPM or 10 μM spermine (SPM) as described in Example 4. SK-MEL-28 cells were also cultured as described in Example 1 and treated with 10 μM DENSPM as describe in Example 4. Untreated cells were used as a control.
(§2) After treatment with DENSPM or spermine, biochemical parameters including polyamine enzymes activity, polyamine pools and analog accumulation were monitored as described by Kramer et al, J. Biol. Chem., 270:2124-32 (1995) and Kramer et al., Cancer Res., 57:5521-5527 (1997). Polyamine enzyme activity was monitored for ornithine […] (ODC); S-adenosylmethionine decarboxylase (SAMDC); and spermidine/spermine N^1-acetyltransferase (SSAT). Polyamine pools was monitored for putrescine (Put); spermidine (Spd); and spermine (Spm).
(§3) Enzyme activity and polyamine pools were measured as described in Example 5.

SK-MEL-28 cells = test: Apoptosis by proton NMR of membrane lipids (methylene/methyl ratio); type: cell-based, human; settings: 10 μM
Description: Apoptosis of MALME-3M and SK-MEL-28 cells due to treatment with 10 μM DENSPM was quantified using proton nuclear magnetic resonance (NMR) spectroscopy. NMR was used to detect membrane phospholipid spectral intensity changes which correlate with surface expression of phosphatidylserine, an early marker of apoptosis. Changes in methylene and methyl peaks were detected by the […] described by Blankenberg et al., Blood, 89:3778-3786 (1997).
Intensity changes in membrane lipids was measured using NMR after 72 hours of continuous treatment with 10 μM DENSPM. […] The SK-MEL-28 cells undergo a rapid spectral ratio change which correlates with the massive cell loss seen in FIG. 4. Maximal cell death occurred by 48 hours in SK-MEL-28 cells. The data represent the mean ratio±standard deviation.
For perspective, a methylene to methyl spectral ratio of about 1 is typical of untreated cells while a ratio of about 3 is the maximum attainable with most apoptotic responses. Thus, the ratio of 2.6 observed with DENSPM-treated SK-MEL-28 cells at 48 hours represents a full scale response.

[2] = tested on: ornithine decarboxylate (ODC); test: Polyamine enzyme activity in treated melanoma cells: ODC; type: cell-based, human; settings: for ODC activity: 10 μM
Description: as §1, §2, §3

[3] = tested on: SK-MEL-28 human melanoma cells; test: Cell growth / apoptotic response of SK-MEL-28 cells (Coulter Counter, growth kinetics); type: cell-based
Description: MALME-3M human melanoma cells containing wt-p53 (American Tissue Type Culture Collection, Bethesda, Md.) and human SK-MEL-28 cells containing mt-p53 (American Tissue Type Culture Collection, Bethesda, Md.) were cultured as a monolayer in RPMI 1640 medium containing 10% Nu-Serum (Collaborative Research Products, Bedford, Mass.), 1 mM aminoguanidine, penicillin (50 units/ml) and streptomycin (50 μg/ml) as described by Kramer et al, J. Biol. Chem., 270:2124-32 (1995) and Kramer et al., Cancer Res., 57:5521-5527 (1997).
MALME-3M cells were cultured as described in Example 1. The cells were seeded by adding 1×10^5 cells to a T-25 vented cell culture flask. After 24 hours, the asynchronous cell cultures were treated with 10 μM N^1, N^11-diethylnorspermine (DENSPM) prepared by dissolving DENSPM in distilled water and sterilizing the solution by filtration through a 0.22 micron Millipore membrane. The cells were treated by continuous exposure to DENSPM for 6 days (i.e., the polyamine was added to the cell culture at T=0 and the culture was incubated for the desired amount of time). The number of viable MALME-3M cells were monitored electronically using a Model ZM Coulter Counter (Coulter Electronics, Hialeah, Fla.). Untreated MALME-3M cell cultures were used as controls.
MALME-3M human melanoma cells were cultured as described in Example 1 and treated continuously with 10 μM DENSPM or 10 μM spermine (SPM) for 48 hours. SK-MEL-28 cells were also cultured as described in Example 1 and treated with 10 μM DENSPM for 24 hours. Untreated cells were used as a control.
The effect of DENSPM and spermine on cell growth was monitored using a Coulter Counter (see Example 2). The effect on cell cycle was monitored by flow cytometry as described in Example 3. […]

[4] = tested on: cell cycle regulatory proteins (p53, p21, p16, p27); test: Western blot of cell cycle regulatory proteins in SK-MEL-28 cells; type: cell-based, human; settings: SK-MEL-28, 10 μM
Description: MALME-3M and SK-MEL-28 cells cultured as described in Example 4 were treated with 10 μM DENSPM for 0 to 48 hours. Western blot analysis of cell cycle regulatory proteins, including p53, p21, p27, ppRb, pRb, cyclin D1 and PCNA was performed following the procedure described by Fogel-Petrovic et al. in Molec. Pharm, 52:69-74 (1997); and Biochemistry, 35:14436-14444 (1996). Antibodies used for detecting the proteins were obtained commercially as follows: p53 from Santa Cruz Biotechnology, Inc. (Santa Cruz, Calif.); PCNA and Cyclin D1 from Oncogene Research Products (Cambridge, Mass.); Rb and p21 from PharMigen (San Diego, Calif.); p27 from Transduction labs (Lexington, Ky.) and β-actin (used to correct for variations in loading) from Sigma Chemical Co. (St. Louis, Mo.). Western blot analysis of each of these proteins was performed at least three times.
The effects of 10 μM DENSPM on MALME-3M and SK-MEL-28 cell growth and cell cycle regulatory proteins were determined as described in Examples 2 and 3, respectively. Panel A is a comparison of the effects of DENSPM on cell growth. Panel B is a comparison of cell cycle regulatory proteins. […] In contrast, p16 was not detectable in MALME-3M cells. Data is representative of at least two experiments.

[5] = tested on: MALME-3M human melanoma cells; test: Polyamine pools in MALME-3M cells; type: cell-based; settings: MALME-3M (wt-p53), 10 μM, Table 2 (24 hours treatment)
Description: as §1, §2

[6] = tested on: spermidine/spermine N^1-acetyltransferase (SSAT); test: Polyamine enzyme activity in treated melanoma cells: SSAT induction; type: cell-based, human; settings: SK-MEL-28 cells, 24 hours
Description: as §1, §2, §3

[7] = tested on: SK-MEL-28 human melanoma cells; test: Cell growth / apoptotic response of SK-MEL-28 cells (Coulter Counter, growth kinetics); type: cell-based; settings: SK-MEL-28 (mt-p53), 10 μM, 48 hours
[8] = SK-MEL-28 (mt-p53), 10 μM, Table 2, 24 hours
[9] = SK-MEL-28 cells, 24 hours, Table 4

Which results are given for `CCNCCCNCCCNCCCNCC` [DENSPM, N^1,N^11-diethylnorspermine]?
Polyamine Pools, Put [1, 8]: 70 pmol/10^6 cells; Polyamine Pools, Spd [1, 8]: 20 pmol/10^6 cells; Polyamine Pools, Spm [1, 8]: 105 pmol/10^6 cells; decrease in spermine pools ([1]; SK-MEL-28 cells, 24 hours): 95%; Analog (intracellular accumulation) [1, 9]: 7710 pmol/10^6 cells; Polyamine Pools, Put [1, 9]: 115 pmol/10^6 cells; Polyamine Pools, Spd [1, 9]: 45 pmol/10^6 cells; Polyamine Pools, Spm [1, 9]: 190 pmol/10^6 cells; time of maximal cell death (SK-MEL-28 cells): ≤ 48 h; methylene to methyl spectral ratio (SK-MEL-28 cells; 48 hours): 2.6; ODC activity ([2]; MALME-3M (wt-p53), Table 2 (24 hours treatment)): 30 pmol/hr/mg protein; ODC activity ([2]; SK-MEL-28 (mt-p53), Table 2, 24 hours): 5 pmol/hr/mg protein; Enzyme Activities, ODC [2, 9]: 37 pmol/hr/mg protein; % Growth Control [3, 8]: 26%; % Control Growth [3, 9]: 30%; cell growth and/or apoptosis response ([3]; SK-MEL-28 cells, growth kinetic analysis): massive and rapid apoptotic response; also recorded: rapid cytotoxic response; cdk inhibitors p16 and p27 [4]: not increased; p21 protein induction with treatment [4]: not induced; induction of p53 ([4]; 24 hours): no induction; Polyamine Pools, Put [5]: 205 pmol/10^6 cells; Polyamine Pools, Spd [5]: 60 pmol/10^6 cells; Polyamine Pools, Spm [5]: 285 pmol/10^6 cells; SSAT activity [6]: 31,920 pmol/min/mg; Enzyme Activities, SSAT ([6]; Table 4): 31920 pmol/min/mg protein; % Control Growth [7]: 0%
